Reference: a compilation of properties of binary mixtures (doi:10.1016/j.fluid.2017.10.015)
Where “and” joins values, the source holds several entries; their conditions need not be identical. Identical values can stand only once.

Assay: xn = mol fraction of the nth substance listed
Conditions: 100 kPa

SMILES | electrical conductivity (298.15 K, x2 = 0) | electrical conductivity (308.15 K, x2 = 0) | electrical conductivity (318.15 K, x2 = 0) | electrical conductivity (328.15 K, x2 = 0) | electrical conductivity (298.15 K, x1 = 0.0001) [S/m] | electrical conductivity (308.15 K, x1 = 0.0001) [S/m] | electrical conductivity (318.15 K, x1 = 0.0001) | electrical conductivity (328.15 K, x1 = 0.0001)
O + CCCCCCCCCCCC[N+]1(C)CCCC1.O=C([O-])c1ccccc1O | 0.0089 S/m and 0.0093 S/m and 0.0105 S/m | 0.0116 S/m and 0.0126 S/m and 0.0139 S/m | 0.0153 S/m and 0.0171 S/m | 0.0172 S/m and 0.0186 S/m and 0.0212 S/m |  |  |  | 
CCCCCCCCCCCC[N+]1(C)CCCC1.O=C([O-])c1ccccc1O + O |  |  |  |  | 0.0115 | 0.0161 | 0.0185 S/m and 0.0235 S/m | 0.0231 S/m and 0.0293 S/m
CCCCCCCCCCCC[N+]1(C)CCCCC1.O=C([O-])c1ccccc1O + O |  |  |  |  |  |  |  | 0.0271 S/m
